# Source: publication PMC2394794 (Journal of Synchrotron Radiation, 2008)
# Read-outs that look alike come from different tables or passages of the source.
# Tests used:
# [1] = target: T1, HCV NS3/4A protease (Hepatitis C virus genotype 1a, UniProt P27958); assay: Inhibition of HCV NS3/4A protease by ketoamide inhibitors; format: biochemical; conditions: P2 = DMCP versus P2 = Leu
# [2] = target: T1, HCV NS3/4A protease; conditions: experimental over predicted relative Ki*
# T1 sequence (P27958 1658-1711): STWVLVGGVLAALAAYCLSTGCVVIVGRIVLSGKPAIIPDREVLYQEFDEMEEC
# T1 sequence (P27958 1027-1208): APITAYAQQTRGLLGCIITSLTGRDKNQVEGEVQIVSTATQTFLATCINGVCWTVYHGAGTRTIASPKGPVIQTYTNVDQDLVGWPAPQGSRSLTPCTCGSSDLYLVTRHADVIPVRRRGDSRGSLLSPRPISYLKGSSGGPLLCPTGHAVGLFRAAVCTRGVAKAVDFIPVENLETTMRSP
smiles,measurement,setting,value
"CC(C)(C)NC(=O)N[C@H](C(=O)N1C[C@H]2[C@@H]([C@H]1C(=O)NC(CC1CCC1)C(=O)C(N)=O)C2(C)C)C(C)(C)C (stereo partly drawn) [Compd 9, ^tBu–urea–t-Bug–DMCP–c-Bua–CONH2]",increase in potency relative to Leu,[1],70 fold
same,Ki* ratio exp./SA,[2]; P2 series,4.1
same,Ki* ratio exp./SA,[2]; P3 series,9.0
